Here are results for 21 compounds from ChEMBL document CHEMBL1799932, “Antimalarial pyrido[1,2-a]benzimidazoles” (J Med Chem, 2011).

SMILES strings stand for the structures. Where only a bound is given, the exact number is not on record here.

Test system in one data set: not listed separately
The data set can be described thus: Selectivity index, ratio IC50 for rat L6 cells to IC50 for multidrug-resistant Plasmodium falciparum K1 infected in human red blood cells. The data set is classed as functional.
Settings: not given
As for `CCN(CC)CCNc1cc(-c2ccc(F)cc2)c(C#N)c2nc3ccccc3n12`, the “Ratio IC50” value is given as 226.

As for `N#Cc1c(-c2ccccc2)cc(NCCCN)n2c1nc1ccccc12`, the “Ratio IC50” value came out at 5.2.

Regarding `CCN(CC)CCNc1cc(-c2ccc(Cl)cc2)c(C#N)c2nc3ccccc3n12`, the “Ratio IC50” value is on record as 683.

In the case of `N#Cc1c(-c2cccc(C(F)(F)F)c2)cc(NCCN)n2c1nc1ccccc12`, the “Ratio IC50” value worked out at 11.7.

Turning to `N#Cc1c(-c2ccc(C(F)(F)F)cc2)cc(NCCN2CCCCC2)n2c1nc1ccccc12`, the “Ratio IC50” value was 3581.

Take `N#Cc1c(-c2cccc(C(F)(F)F)c2)cc(NCCCN)n2c1nc1ccccc12`: the “Ratio IC50” value is listed as 6.9.

With `CN(C)CCNc1cc(-c2ccc(F)cc2)c(C#N)c2nc3ccccc3n12`, the “Ratio IC50” value is 70.

`CN(C)CCCNc1cc(-c2ccc(C(F)(F)F)cc2)c(C#N)c2nc3ccccc3n12`: the “Ratio IC50” value was 455.

On to `N#Cc1c(-c2ccc(C(F)(F)F)cc2)cc(NCCN2CCOCC2)n2c1nc1ccccc12`, for which the “Ratio IC50” value is 68.

`CCN(CC)CCNc1cc(-c2cccc(C(F)(F)F)c2)c(C#N)c2nc3ccccc3n12`: the “Ratio IC50” value is 243.

Turning to `N#Cc1c(-c2ccc(C(F)(F)F)cc2)cc(NCCN2CCCC2)n2c1nc1ccccc12`, the “Ratio IC50” value amounted to 2751.

Consider `CN(C)CCCNc1cc(-c2ccc(F)cc2)c(C#N)c2nc3ccccc3n12`, for which the “Ratio IC50” value came out at 43.

`CCN(CC)CCCNc1cc(-c2ccc(Cl)cc2)c(C#N)c2nc3ccccc3n12`: the “Ratio IC50” value is 287.

Consider `CCNCCN(CC)c1cc(-c2ccc(C(F)(F)F)cc2)c(C#N)c2nc3ccccc3n12`, for which the “Ratio IC50” value stood at 22.9.

As for `CCN(CC)CCCNc1cc(-c2cccc(C(F)(F)F)c2)c(C#N)c2nc3ccccc3n12`, the “Ratio IC50” value is 128.

For the compound `CN(C)CCCNc1cc(-c2cccc(C(F)(F)F)c2)c(C#N)c2nc3ccccc3n12`, the “Ratio IC50” value is listed as 474.

Take `CCN(CC)CCNc1cc(-c2ccccc2)c(C#N)c2nc3ccccc3n12`: the “Ratio IC50” value was found to be 108.

Consider `N#Cc1c(-c2ccc(C(F)(F)F)cc2)cc(NCCCN2CCOCC2)n2c1nc1ccccc12`, for which the “Ratio IC50” value is 80.6.

In the case of `CN(C)CCNc1cc(-c2ccccc2)c(C#N)c2nc3ccccc3n12`, the “Ratio IC50” value was more than 50.

With `CCN(CC)CCCNc1cc(-c2ccccc2)c(C#N)c2nc3ccccc3n12`, the “Ratio IC50” value was more than 150.

Turning to `CN(C)CCCNc1cc(-c2cccc(F)c2)c(C#N)c2nc3ccccc3n12`, the “Ratio IC50” value came out at 29.

For a further data set, the system named is L6. The data set can be described thus: Cytotoxicity at rat L6 cells after 72 hrs by microplate alamar blue assay. It counts as cell-based. To be noted: Rattus norvegicus, L6, 72 h.
The compound `CCN(CC)CCNc1cc(-c2ccc(F)cc2)c(C#N)c2nc3ccccc3n12` showed an IC50 of 56.5 µM.

Compound `N#Cc1c(-c2ccccc2)cc(NCCCN)n2c1nc1ccccc12` yielded an IC50 of 11.9 µM.

`CCN(CC)CCNc1cc(-c2ccc(Cl)cc2)c(C#N)c2nc3ccccc3n12` returned an IC50 of 41 µM.

Compound `N#Cc1c(-c2cccc(C(F)(F)F)c2)cc(NCCN)n2c1nc1ccccc12` showed an IC50 of 11.7 µM.

The compound `N#Cc1c(-c2ccc(C(F)(F)F)cc2)cc(NCCN2CCCCC2)n2c1nc1ccccc12` yielded an IC50 of 193 µM.

`N#Cc1c(-c2cccc(C(F)(F)F)c2)cc(NCCCN)n2c1nc1ccccc12`: the IC50 was 4.33 µM.

In turn, `CN(C)CCNc1cc(-c2ccc(F)cc2)c(C#N)c2nc3ccccc3n12` came in with an IC50 of 19.6 µM.

As for `CN(C)CCCNc1cc(-c2ccc(C(F)(F)F)cc2)c(C#N)c2nc3ccccc3n12`, the IC50 is more than 200 µM.

On to `N#Cc1c(-c2ccc(C(F)(F)F)cc2)cc(NCCN2CCOCC2)n2c1nc1ccccc12`, for which the IC50 was 33.3 µM.

The compound `CCN(CC)CCNc1cc(-c2cccc(C(F)(F)F)c2)c(C#N)c2nc3ccccc3n12` showed an IC50 of 102 µM.

As to `N#Cc1c(-c2ccc(C(F)(F)F)cc2)cc(NCCN2CCCC2)n2c1nc1ccccc12`, the IC50 was determined as 146 µM.

In turn, `CN(C)CCCNc1cc(-c2ccc(F)cc2)c(C#N)c2nc3ccccc3n12` had an IC50 of 11.6 µM.

`CCN(CC)CCCNc1cc(-c2ccc(Cl)cc2)c(C#N)c2nc3ccccc3n12` came in with an IC50 of 48.8 µM. This IC50 lies about 4.2-fold higher than the previous one.

`CCNCCN(CC)c1cc(-c2ccc(C(F)(F)F)cc2)c(C#N)c2nc3ccccc3n12` showed an IC50 of 21.5 µM.

Compound `CN(C)CCCNc1cc(-c2cccc(C(F)(F)F)c2)c(C#N)c2nc3ccccc3n12` yielded an IC50 of 180 µM.

Consider `CCN(CC)CCNc1cc(-c2ccccc2)c(C#N)c2nc3ccccc3n12`, for which the IC50 turned out to be 120 µM.

The compound `N#Cc1c(-c2ccc(C(F)(F)F)cc2)cc(NCCCN2CCOCC2)n2c1nc1ccccc12` came in with an IC50 of 98.3 µM.

In turn, `CN(C)CCNc1cc(-c2ccccc2)c(C#N)c2nc3ccccc3n12` displayed an IC50 of more than 80 µM.

`CCN(CC)CCCNc1cc(-c2ccccc2)c(C#N)c2nc3ccccc3n12` yielded an IC50 of more than 230 µM.

Compound `CN(C)CCCNc1cc(-c2cccc(F)c2)c(C#N)c2nc3ccccc3n12` showed an IC50 of 15.4 µM.

The data set is the same for the next values; noted with them: l6.
`CCN(CC)CCCNc1cc(-c2cccc(C(F)(F)F)c2)c(C#N)c2nc3ccccc3n12` gave a half-maximal inhibitory concentration (IC50) of 24.3 µM. In other words, the double-digit micromolar range.

Test system in another data set: not listed separately
The data set can be described thus: Distribution coefficient, log D of the compound at pH 7.4. It counts as physicochemical. To be noted: octanol/water.
In the case of `CCN(CC)CCNc1cc(-c2ccc(F)cc2)c(C#N)c2nc3ccccc3n12`, the logD is 1.9.

Take `N#Cc1c(-c2ccccc2)cc(NCCCN)n2c1nc1ccccc12`: the logD amounted to 0.49.

On to `CCN(CC)CCNc1cc(-c2ccc(Cl)cc2)c(C#N)c2nc3ccccc3n12`, for which the logD was 2.54.

In the case of `N#Cc1c(-c2cccc(C(F)(F)F)c2)cc(NCCN)n2c1nc1ccccc12`, the logD came to 1.8.

On to `N#Cc1c(-c2ccc(C(F)(F)F)cc2)cc(NCCN2CCCCC2)n2c1nc1ccccc12`, for which the logD came out at 3.78.

Compound `N#Cc1c(-c2cccc(C(F)(F)F)c2)cc(NCCCN)n2c1nc1ccccc12` came in with a logD of 1.46.

Turning to `CN(C)CCNc1cc(-c2ccc(F)cc2)c(C#N)c2nc3ccccc3n12`, the logD turned out to be 1.41.

For the compound `CN(C)CCCNc1cc(-c2ccc(C(F)(F)F)cc2)c(C#N)c2nc3ccccc3n12`, the logD turned out to be 2.49.

`N#Cc1c(-c2ccc(C(F)(F)F)cc2)cc(NCCN2CCOCC2)n2c1nc1ccccc12`: the logD was determined as 3.72.

Consider `CCN(CC)CCNc1cc(-c2cccc(C(F)(F)F)c2)c(C#N)c2nc3ccccc3n12`, for which the logD was 2.94.

`N#Cc1c(-c2ccc(C(F)(F)F)cc2)cc(NCCN2CCCC2)n2c1nc1ccccc12` had a logD of 2.58.

For the compound `CN(C)CCCNc1cc(-c2ccc(F)cc2)c(C#N)c2nc3ccccc3n12`, the logD was 1.45.

The compound `CCN(CC)CCCNc1cc(-c2ccc(Cl)cc2)c(C#N)c2nc3ccccc3n12` showed a logD of 2.57.

In turn, `CCNCCN(CC)c1cc(-c2ccc(C(F)(F)F)cc2)c(C#N)c2nc3ccccc3n12` came in with a logD of 3.52.

With `CCN(CC)CCCNc1cc(-c2cccc(C(F)(F)F)c2)c(C#N)c2nc3ccccc3n12`, the logD worked out at 2.97.

On to `CN(C)CCCNc1cc(-c2cccc(C(F)(F)F)c2)c(C#N)c2nc3ccccc3n12`, for which the logD was determined as 2.49.

`CCN(CC)CCNc1cc(-c2ccccc2)c(C#N)c2nc3ccccc3n12` registered a logD of 1.89.

With `N#Cc1c(-c2ccc(C(F)(F)F)cc2)cc(NCCCN2CCOCC2)n2c1nc1ccccc12`, the logD turned out to be 3.79.

Turning to `CN(C)CCNc1cc(-c2ccccc2)c(C#N)c2nc3ccccc3n12`, the logD is 1.48.

Compound `CCN(CC)CCCNc1cc(-c2ccccc2)c(C#N)c2nc3ccccc3n12` displayed a logD of 2.

`CN(C)CCCNc1cc(-c2cccc(F)c2)c(C#N)c2nc3ccccc3n12` yielded a logD of 1.54.

Another data set relates to Plasmodium falciparum. The data set can be described thus: microbe, parasite or virus in culture. To be noted: K1.
Description: Antimalarial activity against multidrug-resistant Plasmodium falciparum K1 infected in human red blood cells assessed as 3H-hypoxanthine incorporation after 48 hrs by liquid scintillation counting
The compound `CCN(CC)CCNc1cc(-c2ccc(F)cc2)c(C#N)c2nc3ccccc3n12` had an IC50 of 250 nM.

With `N#Cc1c(-c2ccccc2)cc(NCCCN)n2c1nc1ccccc12`, the IC50 was 2270 nM. This IC50 is about 9.1-fold higher than that of the compound before.

`CCN(CC)CCNc1cc(-c2ccc(Cl)cc2)c(C#N)c2nc3ccccc3n12` had an IC50 of 60 nM. Compared with the last compound, the IC50 is about 38-fold lower.

In turn, `N#Cc1c(-c2cccc(C(F)(F)F)c2)cc(NCCN)n2c1nc1ccccc12` displayed an IC50 of 1000 nM.

Compound `N#Cc1c(-c2ccc(C(F)(F)F)cc2)cc(NCCN2CCCCC2)n2c1nc1ccccc12` registered an IC50 of 54 nM.

As for `N#Cc1c(-c2cccc(C(F)(F)F)c2)cc(NCCCN)n2c1nc1ccccc12`, the IC50 is 630 nM. This IC50 is about 12-fold higher than that of the compound before.

For `CN(C)CCNc1cc(-c2ccc(F)cc2)c(C#N)c2nc3ccccc3n12`, the concentration for half-maximal inhibition (IC50) worked out at 280 nM.

In the case of `CN(C)CCCNc1cc(-c2ccc(C(F)(F)F)cc2)c(C#N)c2nc3ccccc3n12`, the midpoint of inhibition, the IC50, lay at 440 nM.

`N#Cc1c(-c2ccc(C(F)(F)F)cc2)cc(NCCN2CCOCC2)n2c1nc1ccccc12` gave an IC50 of 490 nM.

Compound `CCN(CC)CCNc1cc(-c2cccc(C(F)(F)F)c2)c(C#N)c2nc3ccccc3n12` came in with an IC50 of 420 nM. The IC50 values of the last two compounds are within 1.5-fold of each other.

In turn, `N#Cc1c(-c2ccc(C(F)(F)F)cc2)cc(NCCN2CCCC2)n2c1nc1ccccc12` came in with an IC50 of 53 nM.

Take `CN(C)CCCNc1cc(-c2ccc(F)cc2)c(C#N)c2nc3ccccc3n12`: inhibition was half-maximal at 270 nM (IC50). This IC50 lies about 5.1-fold higher than the previous one.

`CCN(CC)CCCNc1cc(-c2ccc(Cl)cc2)c(C#N)c2nc3ccccc3n12`: it took 170 nM to reach half-maximal inhibition (IC50).

`CCNCCN(CC)c1cc(-c2ccc(C(F)(F)F)cc2)c(C#N)c2nc3ccccc3n12` registered an IC50 of 940 nM.

`CCN(CC)CCCNc1cc(-c2cccc(C(F)(F)F)c2)c(C#N)c2nc3ccccc3n12` registered an IC50 of 190 nM. This IC50 lies about 4.9-fold lower than the previous one.

The compound `CN(C)CCCNc1cc(-c2cccc(C(F)(F)F)c2)c(C#N)c2nc3ccccc3n12` showed an IC50 of 380 nM.

In turn, `CCN(CC)CCNc1cc(-c2ccccc2)c(C#N)c2nc3ccccc3n12` came in with an IC50 of 1110 nM. Compared with the last compound, the IC50 is about 2.9-fold higher.

`N#Cc1c(-c2ccc(C(F)(F)F)cc2)cc(NCCCN2CCOCC2)n2c1nc1ccccc12` had an IC50 of 1220 nM. The IC50 values of the last two compounds are within 1.5-fold of each other.

In turn, `CN(C)CCNc1cc(-c2ccccc2)c(C#N)c2nc3ccccc3n12` gave an IC50 of 1490 nM.

Take `CCN(CC)CCCNc1cc(-c2ccccc2)c(C#N)c2nc3ccccc3n12`: the IC50 came out at 1530 nM.

Compound `CN(C)CCCNc1cc(-c2cccc(F)c2)c(C#N)c2nc3ccccc3n12` had an IC50 of 530 nM.
